From US9725490B2, “ERAP1-derived peptide and use thereof” (TOKUSHIMA UNIVERSITY, priority 2011, dated 2017)
Where no end group is shown, it is not given here.

Experiments:
[1] = biological target: T1, binding of Flag-ERAP1 and His-PHB2/REA (Homo sapiens, UniProt Q99623); test: Ni-resin pull-down and Western of His-PHB2/REA with Flag-ERAP1 cell lysate; details: pull-down, each concentration
T1 construct: human PHB2 (residues 77-244); thioredoxin (TrxA) (N); TEV protease cut site (N); made in house; host or cells: PHB2: Escherichia coli BL21 star (DE3); Flag-ERAP1: lysate of transiently transfected COS-7 cells
T1 sequence (Q99623 77-244): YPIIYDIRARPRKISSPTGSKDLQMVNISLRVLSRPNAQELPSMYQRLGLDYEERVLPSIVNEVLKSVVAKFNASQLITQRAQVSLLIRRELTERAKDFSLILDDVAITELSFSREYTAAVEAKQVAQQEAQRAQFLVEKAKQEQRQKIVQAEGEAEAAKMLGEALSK
Experimental: FIG. 2 is a diagram illustrating the results of immunoblotting analysis by which binding of the ERAP1-peptide to PHB2 was evaluated. The cell lysate of the COS-7 cells temporarily transfected with the Flag-tagged ERAP1 plasmid was incubated for 1 hour together with 6×His-tagged recombinant PHB2 protein (10 μg) and the ERAP1-peptide, the ERAP1-scramble peptide, or the ERAP1-mutant peptide in each concentration shown in the figure. Then, His-PHB2 was subjected to pull-down with Ni-NTA agarose (Ni-resin).
The partial sequence of human PHB2 (residues 77-244) was cloned into NcoI and XhoI sites of pTAT6 expression vector (see gift by Dr. Marko Hyvonen, University of Cambridge.: Peranen J, et al., (1996). Anal Biochem. 236, 371-373.) so as to become inframe with the hexahistidine tag, thioredoxin (TrxA) and TEV protease cut site (TEV site) at the amino terminal. The recombinant protein was expressed in Escherichia coli BL21 star (DE3) cell line (Invitrogen, Carlsbad, Calif.), and purified using Hi-Trap Kit (GE Healthcare). Finally, the recombinant protein was purified according to the protocol of the supplier using superdex 200 gel filtration column (GE Healthcare) with high performance liquid chromatography (HPLC). […]

[2] = test system: PHB2/REA localization in MCF-7 cells; test: Nuclear translocation of PHB2/REA (fractionation, immunoblotting, immunostaining); type: cell-based, human; details: 1 hour to 24 hours after administration
Experimental: FIG. 3-1 is a diagram illustrating that ERAP1-peptide treatment promotes nuclear translocation of PHB2. […] MCF-7 cells were stimulated for 24 hours with 10 μM ERAP1-peptide and/or 10 nM E2. The cells were fractioned into mitochondria, cytoplasm, and nuclear fractions by specific gravity centrifugation. Then, each fraction was subjected to immunoblotting analysis using an anti-ERAP1 antibody and an anti-PHB2 antibody. PRDX3, α/β-Tublin (Tublin) and lamin B are markers for mitochondria, cytoplasm, and nuclear fractions, respectively (upper panel). The protein content of each fraction was evaluated with Coomassie-stained SDS-PAGE gel (lower panel). […] KPL-3C cells were treated for 24 hours with 10 μM HA-tagged ERAP1-peptide and/or 10 nM E2. Then, the cells were fractionated into cytoplasm and nuclear fractions by specific gravity centrifugation. Then, which fraction was immunoprecipitated with anti-ERα antibody, an anti-ERAP1 antibody or an anti-PHB2 antibody. Then, immunoblotting was performed with each antibody shown in the figure (an anti-ERAP1 antibody, an anti-ERα antibody, an anti-PHB2 antibody and an anti-HA antibody (Peptide)). α/β-Tubulin (Tubulin) and Lamin B are markers for cytoplasm and nuclear fractions, respectively.
FIG. 4-1 is a diagram illustrating that the ERAP1-peptide promotes nuclear translocation of PHB2. (A) The upper panel illustrates representative images of stained immune cells, showing the intracellular localization of PHB2. MCF-7 cells were treated with 10 μM ERAP1-peptide or ERAP1-scramble peptide. Subsequently, the cells were treated with 10 nM E2. After the immobilization, the cells were subjected to immunofluorescent staining using an anti-PHB2 antibody and DAPI (for discriminating the nucleus).
FIG. 4-2 is a diagram illustrating that the ERAP1-peptide promotes nuclear translocation of PHB2. (B) is a diagram illustrating the results of immunoblotting analysis by which the intracellular localization of PHB2 was detected, MCF-7 cells were treated with the ERAP1-peptide or the ERAP1-scramble peptide. Subsequently immediately, the cells were treated with 10 nM E2. The cells were fractionated into cytoplasm and nuclear fractions after 1 hour or 24 hours. Each fraction was immunoprecipitated with anti-ERα antibody, an anti-ERAP1 antibody or a PH82 antibody. […]
MCF-7 cells were seeded in an 8-well chamber (Laboratory-Tek II Chamber Slide System, Nalgen Nunc International, Naperville, Ill., USA) in 5×10^4 cells/well, and cultured under estrogen-free condition for 24 hours. […] The fluorescence image was obtained under Olympus IX71 microscope (Tokyo, Japan). […]

[3] = test system: transcriptional activity of ERα (ERE); test: ERE-luciferase reporter assay in MCF-7 cells; type: cell-based, human; details: 10 nM E2 24 hours
Experimental: FIG. 3-2 is a diagram illustrating promotion effect of PHB2 nuclear translocation and suppression effect of the transcriptional activation of ER by ERAP1-peptide treatment. (C) illustrates representative images of stained immune cells, showing the localization of the ERAP1-peptide (HA-tagged ERAP1-peptide) and PHB2. MCF-7 cells were treated with 10 μM HA-tagged ERAP1-peptide for 24 hours in the presence or in the absence of 10 nM E2. After the immobilization, the cells were subjected to immunonfluorescent staining using an anti-HA antibody, an anti-PHB2 antibody and DAPI (for discriminating the nucleus). The arrow indicates the nuclear-translocated ERAP1-peptide. […] Then, immediately, the cells were stimulated with 10 nM E2 for 24 hours. TAM indicates the tamoxifen treatment.
FIG. 3-3 is as diagram illustrating the results of the luciferase assay by which the inhibition effect of the ERAP1-peptide was evaluated. MCF-7 cells temporarily transfected with an ERE-luciferase reporter vector (F) or an AP-1-luciferase reporter vector (F) were treated with the ERAP1-peptide, the scramble peptide or the mutant peptide in the concentrations shown in the […]. Then, immediately, the cells were stimulated with 10 nM E2 for 24 hours. TAM indicates the tamoxifen treatment.
FIG. 4-3 is a diagram illustrating that the ERAP1-peptide promotes nuclear translocation of PHB2. (C) and (D) are figures that show the results of the luciferase assay by which the inhibition effect of the ERAP1-peptide on the ERα transcriptional activity was evaluated. MCF-7 cells temporarily transfected with an ERE-luciferase reporter vector (C) or an AP-1-luciferase reporter vector (D) were treated with the ERAP1-peptide in the concentrations shown in the figure or 10 nM tamoxifen. Then, immediately, the cells were stimulated with 10 nM E2 thr 24 hours.
For ERE reporter assay, MCF-7 cells were transfected with ERE reporter (SABiosciences, Frederick, Md., USA) in accordance with the instruction of the manufacturer. For AP-1 reporter assay, MCF-7 cells were transfected with AP-1 reporter (mouse IL-11 promoter comprising two tandem AP-1 sites subcloned into PGL2-basic vector), c-fos, c-Jun and pRL-TK as an internal standard. After 16 hours from the transfection, the culture medium was exchanged with an assay culture medium (Opti-MEM, 10% FBS, 0.1 mM NEAA, 0.1 mM Sodium pyruvate and 10 μg/ml insulin) After 24 hours from the transfection, the cells were treated with E2 and/or the ERAP1-peptide or 24 hours. The cells were harvested, and the activities of luciferase and Renilla-luciferase were evaluated using Promega dual luciferase reporter assay (Tokyo, Japan). In consideration of the transfection efficiency, all of the data were standardized by the activity of Renilla-luciferase.

[4] = test system: PHB2/REA (Ser39) phosphorylation; test: Okadaic acid treatment, immunoblotting of PHB2/REA phosphorylation, MCF-7; type: cell-based, human
Experimental: FIG. 31-2 is a diagram illustrating that phosphorylation of ERAP1 by PKA and PKB regulates phosphorylation of PHB2/REA (S39) through the PP1α activity. […] (S39) is caused. MCF-7 cells suppressed for expression of PKA by siRNA method, were stimulated with 10 nM E2 for 24 hours. In addition, MCF-7 cells were treated with H-89 for 30 minutes and washed with PBS. Then, immediately, the cells were stimulated with 10 nM E2 for 24 hours. […] Then, immediately, the cells were stimulated with 10 nM E2 for 24 hours. […] MCF-7 cells suppressed for expression of PKCα by siRNA method were treated with 10 μM ERAP1 peptide. Then, immediately, the cells were stimulated with 10 nM E2 for 24 hours. The cells were fractionated into cytoplasm and nuclear fractions by specific gravity centrifugation.

| Molecule | direct binding to His-PHB2/REA [1] | inhibition of binding of Flag-ERAP1 and His-PHB2/REA [1] | nuclear translocation of PHB2/REA, temporal [2] | transcriptional activity of ERα in ERE [3] | E2-dependent PHB2/REA phosphorylation (Ser39) ([4]; 20 nM of okadaic acid) | E2-dependent PHB2/REA phosphorylation (Ser39) ([4]; 40 μM) |
| --- | --- | --- | --- | --- | --- | --- |
| ERAP1-HA-peptide: ERAP1-peptide to which HA tag was added (RRRRRRRRRRRQMLSDLTLQLRQR; also: HA tag added, place not given here) | directly bound to His-PHB2/REA, depending on the concentration | competitively inhibited | directly bound to PHB2/REA and was nuclear-translocated at the same time | suppressed the transcriptional activity of ERα |  |  |
| C=C1[C@@H](O)[C@@H]2O[C@]3(CC[C@H](/C=C/[C@@H](C)[C@@H]4CC(C)=C[C@@]5(O[C@H](C[C@@](C)(O)C(=O)O)CC[C@H]5O)O4)O3)CC[C@H]2O[C@@H]1[C@@H](O)C[C@H](C)[C@H]1O[C@@]2(CCCCO2)CC[C@H]1C [okadaic acid] |  |  |  |  | recognized to be recovered | confirmed to decrease |
